The results in this text go back to the OPERA property sets (Mansouri et al. 2018).

In the case of `CN(C)CCN(Cc1cccs1)c1ccccn1`, the log10 Koc (L/kg) was 2.87.

`COc1cccc2c1C(=O)c1c(O)c3c(c(O)c1C2=O)C[C@@](O)(C(=O)CO)C[C@@H]3O[C@H]1C[C@H](N)[C@H](O)[C@H](C)O1` had a melting point of 230 °C.

`NNC(=O)c1ccccc1O` yielded a melting point of 148 °C.

In the case of `CC(C)CN(CC(C)C)CC(C)C`, the boiling point is 192 °C and the melting point is -21.8 °C.

With `c1ccc([As](c2ccccc2)c2ccccc2)cc1`, the boiling point amounted to 360 °C, the log10 vapour pressure (mmHg) was -4.3 and the melting point is 61 °C.

In turn, `Cc1ccccc1Oc1ccccc1` had a boiling point of 264 °C and a melting point of 21.7 °C.

As to `CC=C1CCCC1`, the boiling point worked out at 115 °C and the melting point is -130 °C.

Regarding `Cn1sc(Cl)cc1=O`, the ready biodegradability entry is on record as “not readily biodegradable”.

`CCNc1nc(NC(C)CC)nc(OC)n1` (configuration not stated): the log10 Koc (L/kg) was 2.78, the log10 vapour pressure (mmHg) was -5.14 and the melting point worked out at 87 °C.

In the case of `Oc1ccc(Cc2ccccc2)cc1`, the boiling point turned out to be 322 °C, the melting point is 84 °C and the ready biodegradability entry is reported as “not readily biodegradable”.

As to `CCCCCCCCCCCCCCCCCCCCCCCCCCCCCCCCC`, the log10 biodegradation half-life (days) stood at 2.56, the log10 vapour pressure (mmHg) is -10.4 and the melting point is 72 °C.

As to `Nc1cccc(N)n1`, the boiling point came out at 285 °C, the melting point was found to be 122 °C and the ready biodegradability entry is reported as “not readily biodegradable”.

Consider `CC=CCC(C)=O`, for which the boiling point was found to be 127 °C.

As to `N#Cc1ccccc1`, the boiling point came to 191 °C, the log10 Koa is 4.46, the log10 vapour pressure (mmHg) is -0.115 and the melting point was -12.7 °C. In addition, the ready biodegradability result is recorded as “readily biodegradable”.

For `NCCCC1OCC2(CO1)COC(CCCN)OC2` (configuration not stated), the ready biodegradability result is “not readily biodegradable”.

Regarding `CCC(C)=NO`, the boiling point is 152 °C, the melting point was -29.5 °C and the ready biodegradability result is on record as “not readily biodegradable”.

For `Nc1cccc2cc3ccccc3nc12`, the melting point was 108 °C.

As for `CN(C)c1ccc(C(=N)c2ccc(N(C)C)cc2)cc1`, the boiling point was 330 °C, the log10 Koc (L/kg) was determined as 3.31, the melting point turned out to be 136 °C and the ready biodegradability entry is recorded as “not readily biodegradable”.

Consider `CC(c1ccccc1)c1ccc(O)cc1` (configuration not stated), for which the ready biodegradability result is “not readily biodegradable”.

Turning to `O=CCCl`, the boiling point stood at 85.5 °C, the log10 vapour pressure (mmHg) stood at 1.81 and the melting point is -16.3 °C.

As to `C1CCC(CCC2CCCCC2)CC1`, the boiling point turned out to be 272 °C and the melting point turned out to be 11.5 °C.

On to `CC(C)CCC(=O)c1ccoc1`, for which the boiling point is 196 °C.

Take `CCCCCCCCCCCCCCCN`: the boiling point came to 308 °C and the melting point is 37.3 °C.

Take `CC(C)C(C)(C)O`: the boiling point stood at 118 °C, the log10 vapour pressure (mmHg) is 0.505 and the melting point is -14 °C.

Turning to `CCOP(=S)(OCC)SCSP(=S)(OCC)OCC`, the log10 Koc (L/kg) came to 4.06, the log10 vapour pressure (mmHg) was -5.82 and the melting point is -13 °C.

Regarding `c1ccc(N(c2ccccc2)c2ccccc2)cc1`, the boiling point was 365 °C, the log10 Koc (L/kg) amounted to 2.26 and the melting point was determined as 127 °C.

In the case of `O=c1ccc2ccccc2[nH]1`, the melting point was found to be 200 °C.

`CCCCCCCCCCCCCCCBr`: the boiling point came to 322 °C, the log10 vapour pressure (mmHg) was -3.83 and the melting point amounted to 19 °C.

`COC(=O)c1cc(OC)c(OC)c(OC)c1` had a boiling point of 274 °C and a melting point of 83 °C.

Regarding `COc1ccc(OC)c([N+](=O)[O-])c1`, the melting point is 72.5 °C.

Turning to `O=c1[nH]cc(C(F)(F)F)c(=O)[nH]1`, the melting point was 316 °C.

`Clc1cc2c(c(Cl)c1Cl)Oc1c(cc(Cl)c(Cl)c1Cl)O2`: the log10 Koa amounted to 11, the log10 vapour pressure (mmHg) was -10.3 and the melting point was 243 °C.

`O=C(CBr)c1ccccc1` returned a melting point of 50.5 °C.

As for `c1ccc(Cn2ccnc2)cc1`, the boiling point was found to be 310 °C and the melting point is 69 °C.

The compound `Cc1nc(C)c(C)nc1C` showed a boiling point of 190 °C and a melting point of 85 °C.

`C=C(C)C(=O)OCC(C)C` gave a boiling point of 155 °C and a log10 vapour pressure (mmHg) of 0.56.

For `CC(C)C1=CC(=O)C(C)CC1` (configuration not stated), the boiling point is 236 °C.

For `O=C1Cc2ccccc2O1`, the boiling point is 249 °C and the melting point was found to be 50 °C.

Compound `c1ccc2cc3c(ccc4cc5ccccc5cc43)cc2c1` came in with a melting point of 257 °C.

Consider `O=CC1CCCCC1`, for which the boiling point was 159 °C.

Regarding `Cc1ccc([N+](=O)[O-])c(O)c1`, the log10 Henry constant (atm·m³/mol) is -4.89, the log10 vapour pressure (mmHg) was -1.7, the melting point was 53 °C and the ready biodegradability result was “not readily biodegradable”.

Take `O=C(O)CSCC(=O)O`: the melting point was 129 °C.

With `C=CCCC(C)=O`, the boiling point amounted to 130 °C and the log10 vapour pressure (mmHg) is 1.02.

`Ic1cccc(-c2ccccc2)c1`: the melting point stood at 26.5 °C.

Compound `Brc1ccc(Oc2ccccc2Br)c(Br)c1` showed a logP of 5.74.

`COCC(F)(F)C(F)C(F)(F)F` (configuration not stated) had a boiling point of 87.5 °C and a log10 vapour pressure (mmHg) of 1.79.

The melting point is the temperature, or range, at which the solid turns liquid. What is called boiling point is the temperature at which the vapour pressure of the liquid equals the pressure above it. As a reminder, the logP is a log measure of how a compound divides between an organic and an aqueous phase. A high value points to a more lipophilic compound.
